Where two headings read alike, the source gives them in different places.
Target: HPPK (Escherichia coli, UniProt P26281)
Experiment: HPPK binding study by fluorometric titration (Kd)
Conditions: for affinity compared with previously known HPPK inhibitors: comparison in words
Procedure: Binding studies were carried out at room temperature. Protein (HPPK) and ligand stock solutions were made in 100 mM Tris-HCl, pH 8.3, and their concentrations were determined spectrophotometrically using the following extinction coefficients: 21600 M^−1 cm^−1 at 280 nm for HPPK and 7124 M^−1 cm^−1 at 380 nm for the tetrahydropteridine bisubstrate inhibitors of Formula I. A 3-mL dilute inhibitor solution in a fluorometric cuvette was titrated with the protein stock solution. Fluorescence was measured on a Horiba Jobin Yvon FluoroMax-4 fluorometer. The excitation wavelength and slit were 364-380 and 2-3 nm, respectively, and the emission wavelength and slit were 450-482 and 2-5 nm, respectively. […] For these HPPK preparations, a control experiment, in which a 3-mL buffer solution was titrated with the protein solution, was performed. The control data was subtracted from the titration data. The corrected titration data was then analyzed by nonlinear least-squares regression using the software Origin and the equation: […]
where Fobs is the observed fluorescence, εf and εb are the fluorescence coefficients of the ligand in the free and protein-bound states, respectively, Lt is the total concentration of the ligand, and Et is the total concentration of HPPK. Lt and Et were varied during the titration process according to the following expressions:
where E0 is the concentration of the HPPK stock solution, L0 is the initial concentration of the ligand, V0 is the initial volume of the titration, and ΔV is the total volume of the added HPPK solution.

[1] = room temperature, 100 mM Tris-HCl pH 8.3, inhibitor titrated with HPPK, fluorescence, nonlinear least-squares analysis, read-out: Kd

HPPK, sequence (P26281 whole entry): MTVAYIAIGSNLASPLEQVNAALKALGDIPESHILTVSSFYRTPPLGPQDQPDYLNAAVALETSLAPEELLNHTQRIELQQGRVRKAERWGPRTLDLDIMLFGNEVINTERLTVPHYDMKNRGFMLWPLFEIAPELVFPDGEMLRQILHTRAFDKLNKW

Row | Structure (SMILES) | Kd [1] | Kd | affinity compared with previously known HPPK inhibitors
1 | CC1(C)Nc2nc(N)[nH]c(=O)c2N=C1C(=O)NC1CCN(CCSC[C@H]2O[C@@H](n3cnc4c(N)ncnc43)[C@H](O)[C@@H]2O)CC1 [Compound 101, 2-amino-N-(1-(2-((((2S,3S,4R,5R)-5-(6-amino-9H-purin-9-yl)-3,4-dihydroxytetrahydrofuran-2-yl)methyl)thio)ethyl)piperidin-4-yl)-7,7-dimethyl-4-oxo-3,4,7,8-tetrahydropteridine-6-carboxamide] | 11500 nM |  | 
2 | CC1(C)Nc2nc(N)[nH]c(=O)c2N=C1C(=O)NCCN(CC(=O)NC[C@H]1O[C@@H](n2cnc3c(N)ncnc32)C(O)C1O)CP(=O)(O)O (stereo partly shown) [Compound 115] |  | 2900 nM | 
3 | CC1(C)Nc2nc(N)[nH]c(=O)c2N=C1C(=O)NCCN1CC[C@@H](SC[C@H]2O[C@@H](n3cnc4c(N)ncnc43)[C@H](O)[C@@H]2O)C[C@@H]1C(=O)O [Compound 120, (2R,4R)-1-(2-(2-amino-7,7-dimethyl-4-oxo-3,4,7,8-tetrahydropteridine-6-carboxamido)ethyl)-4-((((2S,3S,4R,5R)-5-(6-amino-9H-purin-9-yl)-3,4-dihydroxytetrahydrofuran-2-yl)methyl)thio)piperidine-2-carboxylic acid] | 300 nM |  | 
4 | CC1(C)Nc2nc(N)[nH]c(=O)c2N=C1C(=O)NCC(=O)N(CC(=O)NC[C@H]1O[C@@H](n2cnc3c(N)ncnc32)C(O)C1O)CP(=O)(O)O (stereo partly shown) [Compound 114] |  | 1800 nM | significantly higher
5 | CC1(C)Nc2nc(N)[nH]c(=O)c2N=C1C(=O)NCCN(CCSC[C@H]1O[C@@H](n2cnc3c(N)ncnc32)[C@H](O)[C@@H]1O)CP(=O)(O)O [Compound 118, (((2-(2-amino-7,7-dimethyl-4-oxo-3,4,7,8-tetrahydropteridine-6-carboxamido)ethyl)(2-((((2S,3S,4R,5R)-5-(6-amino-9H-purin-9-yl)-3,4-dihydroxytetrahydrofuran-2-yl)methyl)thio)ethyl)amino)methyl)phosphonic acid] |  | 400 nM | significantly higher

Source: US11091509B2, “HPPK inhibitors useful as antibacterial agents” (priority 2016, dated 2021)
